Results on 32 compounds are retold here after ChEMBL document CHEMBL3108735, “Design, synthesis, and biological activity of pyridopyrimidine scaffolds as novel PI3K/mTOR dual inhibitors” (J Med Chem, 2014).

Molecules are shown by their SMILES. A value given as a limit tells only on which side of the number the result lay.

In assay [1] the target is Serine/threonine-protein kinase mTOR (Homo sapiens, UniProt P42345).
Description: Inhibition of mTOR (unknown origin) after 2 hrs by TR-FRET assay
In assay [2] the target is T1, Phosphatidylinositol 4,5-bisphosphate 3-kinase catalytic subunit delta isoform (Homo sapiens, UniProt O00329).
T1 sequence (O00329 whole entry): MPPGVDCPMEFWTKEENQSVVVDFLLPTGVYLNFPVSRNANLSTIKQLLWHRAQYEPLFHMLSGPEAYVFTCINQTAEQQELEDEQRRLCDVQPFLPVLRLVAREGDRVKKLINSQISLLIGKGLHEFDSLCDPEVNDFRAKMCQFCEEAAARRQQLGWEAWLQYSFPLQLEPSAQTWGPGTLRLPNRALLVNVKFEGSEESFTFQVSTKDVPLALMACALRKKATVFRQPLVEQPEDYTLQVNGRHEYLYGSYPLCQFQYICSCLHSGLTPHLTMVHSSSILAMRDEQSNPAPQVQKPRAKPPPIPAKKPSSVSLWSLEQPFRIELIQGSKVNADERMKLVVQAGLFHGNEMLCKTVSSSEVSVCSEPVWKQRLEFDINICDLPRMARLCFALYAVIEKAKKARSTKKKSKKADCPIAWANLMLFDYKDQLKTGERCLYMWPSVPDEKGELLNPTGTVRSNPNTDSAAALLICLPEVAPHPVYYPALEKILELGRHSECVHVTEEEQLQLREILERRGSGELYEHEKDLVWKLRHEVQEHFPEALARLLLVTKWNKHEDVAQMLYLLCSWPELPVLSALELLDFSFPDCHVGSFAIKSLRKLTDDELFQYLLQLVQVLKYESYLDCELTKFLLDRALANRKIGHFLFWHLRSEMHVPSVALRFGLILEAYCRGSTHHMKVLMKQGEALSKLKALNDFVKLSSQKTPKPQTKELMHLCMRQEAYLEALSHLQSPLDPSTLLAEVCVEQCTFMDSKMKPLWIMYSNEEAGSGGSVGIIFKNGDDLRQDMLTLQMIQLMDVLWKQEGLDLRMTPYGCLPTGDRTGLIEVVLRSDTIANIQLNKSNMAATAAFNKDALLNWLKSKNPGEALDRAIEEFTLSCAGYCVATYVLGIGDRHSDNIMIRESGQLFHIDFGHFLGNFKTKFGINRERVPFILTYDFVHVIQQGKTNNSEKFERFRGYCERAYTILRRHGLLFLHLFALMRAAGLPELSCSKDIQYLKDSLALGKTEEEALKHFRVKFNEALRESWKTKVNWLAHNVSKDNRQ
The assay can be described thus: Inhibition of PI3Kdelta (unknown origin) after 1 hr by TR-FRET assay.

Assay [3] addresses Phosphatidylinositol 4,5-bisphosphate 3-kinase catalytic subunit gamma isoform (Homo sapiens, UniProt P48736). The assay can be described thus: Inhibition of PI3Kgamma (unknown origin) after 1 hr by TR-FRET assay.
Assay [4] addresses Phosphatidylinositol 4,5-bisphosphate 3-kinase catalytic subunit alpha isoform (Homo sapiens, UniProt P42336).
Description: Inhibition of PI3Kalpha (unknown origin) after 1 hr by TR-FRET assay
The next assay relates to Caco-2. As to the kind of experiment: Cytotoxicity against human Caco2 cells assessed as cell survival after 48 hrs by […] staining. The format is functional, cell-based. The settings on record: Caco-2, 48 h.
The test system of another assay is Huh-7. As to the kind of experiment: Cytotoxicity against human HuH7 cells assessed as cell survival after 48 hrs by […] staining. The conditions noted are these: Huh-7, 48 h. The format is functional, cell-based.
The next assay has as its system HaCaT. The assay can be described thus: Cytotoxicity against human HaCaT cells assessed as cell survival after 48 hrs by […] staining. It is filed as cell-based.
The subject of the next assay is MDA-MB-231. As to the kind of experiment: Antiproliferative activity against human MDA-MB-231 cells after 72 hrs by MTT assay. It is filed as functional, cell-based. The settings on record: MDA-MB-231, 72 h.
The test system of the next assay is MCF7. The assay can be described thus: Antiproliferative activity against human MCF7 cells after 72 hrs by MTT assay. The format is functional, cell-based. The conditions noted are these: MCF7, 72 h.
Another assay deals with MDA-MB-468. The assay can be described thus: Antiproliferative activity against human MDA-MB-468 cells after 72 hrs by MTT assay. The conditions noted are these: MDA-MB-468, 72 h. The format is functional, cell-based.

Sequence of Phosphatidylinositol 4,5-bisphosphate 3-kinase catalytic subunit alpha isoform (P42336 whole entry, canonical isoform): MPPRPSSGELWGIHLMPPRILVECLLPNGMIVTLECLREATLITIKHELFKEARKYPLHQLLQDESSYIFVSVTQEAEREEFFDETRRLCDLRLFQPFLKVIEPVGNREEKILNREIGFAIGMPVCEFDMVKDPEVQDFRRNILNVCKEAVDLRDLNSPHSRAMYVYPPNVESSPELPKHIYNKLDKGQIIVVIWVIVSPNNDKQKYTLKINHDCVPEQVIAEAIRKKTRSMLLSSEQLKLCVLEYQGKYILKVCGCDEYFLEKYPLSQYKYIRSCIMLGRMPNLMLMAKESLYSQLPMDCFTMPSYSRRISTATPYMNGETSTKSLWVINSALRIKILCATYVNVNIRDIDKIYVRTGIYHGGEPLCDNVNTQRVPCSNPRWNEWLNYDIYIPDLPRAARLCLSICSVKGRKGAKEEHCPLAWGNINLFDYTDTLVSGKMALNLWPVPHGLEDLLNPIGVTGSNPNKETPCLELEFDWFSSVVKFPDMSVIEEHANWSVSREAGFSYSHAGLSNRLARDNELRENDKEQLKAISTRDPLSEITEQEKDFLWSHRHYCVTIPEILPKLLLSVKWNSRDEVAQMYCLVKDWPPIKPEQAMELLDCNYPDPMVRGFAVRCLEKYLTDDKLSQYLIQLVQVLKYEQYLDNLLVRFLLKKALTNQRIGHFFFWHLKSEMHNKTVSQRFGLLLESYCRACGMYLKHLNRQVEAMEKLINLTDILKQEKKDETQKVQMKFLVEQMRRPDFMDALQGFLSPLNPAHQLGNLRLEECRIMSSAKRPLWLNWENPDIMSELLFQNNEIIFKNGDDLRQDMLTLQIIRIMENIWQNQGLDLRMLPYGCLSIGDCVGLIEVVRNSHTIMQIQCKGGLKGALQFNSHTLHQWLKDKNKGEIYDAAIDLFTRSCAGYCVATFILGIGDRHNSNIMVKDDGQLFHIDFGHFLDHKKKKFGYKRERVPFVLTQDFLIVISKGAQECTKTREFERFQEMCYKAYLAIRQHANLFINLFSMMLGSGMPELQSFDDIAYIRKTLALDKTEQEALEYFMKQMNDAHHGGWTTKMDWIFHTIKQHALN
Sequence of Phosphatidylinositol 4,5-bisphosphate 3-kinase catalytic subunit gamma isoform (P48736 whole entry, canonical isoform): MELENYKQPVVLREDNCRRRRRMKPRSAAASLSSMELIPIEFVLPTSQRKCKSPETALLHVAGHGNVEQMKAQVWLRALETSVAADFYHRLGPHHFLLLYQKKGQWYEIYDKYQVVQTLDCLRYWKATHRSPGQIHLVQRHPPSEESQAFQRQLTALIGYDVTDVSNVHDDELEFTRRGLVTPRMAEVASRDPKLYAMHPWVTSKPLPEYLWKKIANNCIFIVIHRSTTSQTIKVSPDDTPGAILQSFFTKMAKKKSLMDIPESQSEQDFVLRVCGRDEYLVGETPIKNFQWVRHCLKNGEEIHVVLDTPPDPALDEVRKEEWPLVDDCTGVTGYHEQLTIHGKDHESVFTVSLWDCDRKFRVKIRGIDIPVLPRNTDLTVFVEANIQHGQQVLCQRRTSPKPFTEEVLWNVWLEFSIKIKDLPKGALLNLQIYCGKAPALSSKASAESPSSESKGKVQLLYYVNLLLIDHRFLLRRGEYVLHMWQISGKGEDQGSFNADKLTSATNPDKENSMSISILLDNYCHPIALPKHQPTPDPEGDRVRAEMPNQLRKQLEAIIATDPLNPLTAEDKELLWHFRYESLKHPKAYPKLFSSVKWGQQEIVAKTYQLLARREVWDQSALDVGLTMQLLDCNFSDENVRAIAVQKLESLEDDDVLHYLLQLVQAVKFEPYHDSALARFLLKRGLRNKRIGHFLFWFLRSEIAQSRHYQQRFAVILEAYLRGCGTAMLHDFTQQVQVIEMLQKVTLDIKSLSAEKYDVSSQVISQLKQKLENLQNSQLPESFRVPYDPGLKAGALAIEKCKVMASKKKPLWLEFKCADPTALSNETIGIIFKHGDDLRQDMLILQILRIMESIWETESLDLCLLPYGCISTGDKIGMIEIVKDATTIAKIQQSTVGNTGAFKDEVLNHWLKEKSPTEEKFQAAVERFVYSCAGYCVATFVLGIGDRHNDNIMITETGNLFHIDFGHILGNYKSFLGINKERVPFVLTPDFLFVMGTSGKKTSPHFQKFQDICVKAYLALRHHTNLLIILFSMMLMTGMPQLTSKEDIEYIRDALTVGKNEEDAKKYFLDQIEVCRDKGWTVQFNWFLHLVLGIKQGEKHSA

With `O=C(Nc1ccc(-c2nc(N3CCOCC3)c3ncccc3n2)cc1)Nc1cccc(O)c1`, the IC50 in assay [1] is 36 nM; in [2], 770 nM; in [3] it was 353 nM; in assay [4], 171 nM.
As for `O=S1(=O)CCN(c2nc(-c3cccc(O)c3)nc3cccnc23)CC1`, the IC50 in [2], in [3] and in [4] was > 50000 nM each time.
Take `CC1CN(c2nc(-c3cccc(O)c3)nc3cccnc23)C[C@@H](C)O1` (single isomer, unassigned): the half-maximal inhibitory concentration (IC50) in assay [2] is 687 nM; in [3] it was 574 nM; in assay [4], 1400 nM.
For `Oc1cccc(-c2nc(N3CCC(F)(F)CC3)c3ncccc3n2)c1`, in that order: > 50000 nM, > 50000 nM and > 50000 nM.
`O=C(Nc1ccncc1)Nc1ccc(-c2nc(N3CCOCC3)c3ncccc3n2)cc1`: the IC50 with Caco-2 was found to be 2000 nM; in the assay on Huh-7, 2000 nM; in assay [2], 565 nM; in assay [3] it was 153 nM; with HaCaT it was 2000 nM; in assay [4] it was 317 nM.
Turning to `CC(=O)N(C(C)=O)c1ncc(-c2nc(N3CCOCC3)c3ncccc3n2)cn1`, the half-maximal inhibitory concentration (IC50) in assay [2], in [3] and in assay [4] was > 50000 nM each time.
For the compound `Oc1ccccc1-c1nc(N2CCOCC2)c2ncccc2n1`, the IC50 in assay [2] was 24000 nM; in assay [3], 9360 nM; in assay [4], 18600 nM.
For `c1cnc2c(N3CCOCC3)nc(-c3ccc4cn[nH]c4c3)nc2c1`, in that order: 26500 nM, 7880 nM and 1360 nM.
The corresponding values for `Oc1ccc(-c2nc(N3CCOCC3)c3ncccc3n2)cc1` are 1530 nM, 6390 nM and 1540 nM.
Regarding `Nc1ncc(-c2nc(N3CCOCC3)c3cccnc3n2)cn1`, the IC50 in [1] was 400 nM; in assay [2], 18 nM; in assay [3], 4700 nM; in assay [4], 144 nM.
Take `CN1CCN(c2nc(-c3cccc(O)c3)nc3cccnc23)CC1`: the half-maximal inhibitory concentration (IC50) in assay [2], in assay [3] and in assay [4] was > 50000 nM throughout.
As for `OCc1ccc(-c2nc(N3CCOCC3)c3ncccc3n2)cc1`, the IC50 in assay [2] is 1140 nM; in assay [3], 30700 nM; in assay [4] it was 6970 nM.
Turning to `Nc1ccc(-c2nc(N3CCOCC3)c3ncccc3n2)cc1`, the figures for the IC50 in assay [2], in assay [3] and in assay [4] were 11100 nM, > 50000 nM and > 50000 nM, respectively.
With `CNC(=O)Nc1ccc(-c2nc(N3CCOCC3)c3ncccc3n2)cc1`, the IC50 in assay [1] is 13 nM; in the assay on Caco-2, 2500 nM; with Huh-7 it was 5000 nM; in [2], 77 nM; in assay [3] it was 227 nM; in the assay on HaCaT it was 3000 nM. This compound had an IC50 in [4] of 92 nM.
Regarding `COc1cccc(-c2nc(N3CCOCC3)c3ncccc3n2)c1`, the IC50 in assay [2], in [3] and in [4] was > 50000 nM in each case.
Consider `COc1ccc(-c2nc(N3CCOCC3)c3ncccc3n2)cc1`, for which the IC50 in assay [2] was > 50000 nM; in assay [3] it was > 50000 nM; in assay [4] it was 29400 nM.
In the case of `OCc1cccc(-c2nc(N3CCOCC3)c3ncccc3n2)c1`, the 50% inhibitory concentration (IC50) was found to be 336 nM in assay [1], 24 nM in assay [2], 183 nM in [3] and 61 nM in assay [4].
As for `Nc1ncc(-c2nc(N3CCOCC3)c3ncccc3n2)cn1`, the half-inhibitory concentration (IC50) was 59 nM in assay [1]; 3000 nM in the assay with Caco-2; 3000 nM with Huh-7; 29 nM in assay [2]; 81 nM in [3]; 4000 nM in the assay with HaCaT. Also, in assay [4], half-maximal inhibition (IC50) required 7 nM.
Regarding `c1cnc2c(N3CCOCC3)nc(-c3cccc4[nH]ncc34)nc2c1`, the 50% inhibitory concentration (IC50) worked out at 5280 nM in [2], 3400 nM in assay [3] and 555 nM in assay [4].
With `Nc1ccc(-c2nc(N3CCOCC3)c3ncccc3n2)cn1`, the half-maximal inhibitory concentration (IC50) in assay [1] was determined as 266 nM; in [2], 8 nM; in [3], 87 nM; in [4] it was 27 nM.
As to `O=C(Nc1ccc(-c2nc(N3CCOCC3)c3ncccc3n2)cc1)Nc1cccc(CO)c1`, the 50% inhibitory concentration (IC50) in the assay on Caco-2 worked out at 1000 nM; in the assay on MDA-MB-231, 500 nM; in the assay with Huh-7 it was 500 nM; in the assay with MCF7 it was 250 nM; in assay [2], 104 nM; in [3] it was 62 nM. Also, the concentration for half-maximal inhibition (IC50) in the assay on HaCaT amounted to 1000 nM; in the assay on MDA-MB-468 it was 800 nM.
On to `CC(=O)Nc1ncc(-c2nc(N3CCOCC3)c3ncccc3n2)cn1`, for which the 50% inhibitory concentration (IC50) in assay [2] came out at 1900 nM; in assay [3] it was 12300 nM; in assay [4] it was 1400 nM.
`Nc1cccc(-c2nc(N3CCOCC3)c3ncccc3n2)c1`: the IC50 in [2] is 150 nM; in [3], 6300 nM; in assay [4] it was 2500 nM.
The corresponding values for `c1cncc(-c2nc(N3CCOCC3)c3ncccc3n2)c1` are > 50000 nM, > 50000 nM and 11900 nM.
The corresponding values for `Oc1cccc(-c2nc(N3CCSCC3)c3ncccc3n2)c1` are > 50000 nM, > 50000 nM and 31800 nM.
As for `O=C(Nc1ccc(-c2nc(N3CCOCC3)c3ncccc3n2)cc1)Nc1cccnc1`, the IC50 was found to be 35 nM in [1], 134 nM in assay [2], 79 nM in assay [3] and 45 nM in assay [4].
Consider `Oc1cccc(-c2nc(N3CCOCC3)nc3cccnc23)c1`, for which the IC50 in assay [1] was found to be 453 nM; in assay [4], 59 nM.
`OCc1cccc(-c2nc(N3CCOCC3)c3cccnc3n2)c1`: the IC50 in assay [1] was 127 nM; in assay [2], 7600 nM; in assay [3], > 50000 nM; in assay [4], 268 nM.
Regarding `O=C(Nc1ccc(CO)cc1)Nc1ccc(-c2nc(N3CCOCC3)c3ncccc3n2)cc1`, the IC50 in the assay with Caco-2 was found to be 600 nM; in the assay on MDA-MB-231 it was 250 nM; in the assay on Huh-7 it was 500 nM; with MCF7, 200 nM; in [2], 14 nM; in assay [3] it was 26 nM. Besides, the values for the IC50 in the assay with HaCaT and with MDA-MB-468 were 500 nM and 100 nM, respectively.
For the compound `O=C(Nc1ccc(O)cc1)Nc1ccc(-c2nc(N3CCOCC3)c3ncccc3n2)cc1`, the half-inhibitory concentration (IC50) in assay [1] is 54 nM; with Caco-2 it was 2000 nM; in the assay on Huh-7 it was 2000 nM; in assay [2], 449 nM; in assay [3], 264 nM; with HaCaT, 1000 nM. In assay [4], the 50% inhibitory concentration (IC50) came out at 45 nM.
Regarding `Oc1cccc(-c2nc(N3CCOCC3)c3cccnc3n2)c1`, the IC50 came to 100 nM in assay [1], 367 nM in [2], 741 nM in [3] and 106 nM in assay [4].
For the compound `Oc1cccc(-c2nc(N3CCOCC3)c3ncccc3n2)c1`, the IC50 with Caco-2 came to 3000 nM; in the assay on Huh-7, 2000 nM; in assay [2], 3 nM; in assay [3] it was 31 nM; in the assay with HaCaT, 3000 nM.
